Data from patent publication US20230270112A1, “A METHOD OF DI[…] GASEOUS ENVIRONMENT, A LIQUID, OR A SOLID SURFACE” (priority 2020, published 2023).
Where two headings read alike, the source gives them in different places.

Experiments:
[1] = with cucurbit[7]uril; cited from earlier work
[2] = system: herpes simplex virus serotype two (HSV-2); assay: Titration by TCID50 assay (incl. guest-host chemistry assay); type: cell-based; details: mixed with the virus for 5 minutes, FIG. 3a
[3] = system: herpes simplex virus serotype two (HSV-2); assay: DNA exposure assay; details: FIG. 6
[4] = system: respiratory syncytial virus (RSV); assay: Titration by TCID50 assay; type: cell-based; details: FIG. 3b
[5] = system: herpes simplex virus serotype two (HSV-2); assay: Dose-response (plaque) assay; type: cell-based; details: FIG. 4a
[6] = system: herpes simplex virus serotype two (HSV-2); assay: Time of addition study; type: cell-based; details: FIG. 7
[7] = system: respiratory syncytial virus (RSV); assay: Dose-response (plaque) assay; type: cell-based; details: FIG. 4b
[8] = system: SARS-CoV-2; type: cell-based
[9] = system: herpes simplex virus serotype two (HSV-2); assay: Virucidal assay; type: cell-based; details: FIG. 5

Compound: NC12CC3CC(CC(C3)C1)C2 [ADA, 1-Adamantylamine]
- binding affinity [1]: 1.7+/−0.8×10^14 M^−1

Compound: O=C1N2CN3C(=O)N4CN5C(=O)N6CN7C(=O)N8CN9C(=O)N%10CN%11C(=O)N%12CN1C1C2N2CN%13C(=O)N(CN%14C(=O)N(CN%15C(=O)N(CN%16C(=O)N(CN%17C(=O)N(CN1C2=O)C%12C%11%17)C%10C9%16)C8C7%15)C6C5%14)C4C3%13 (stereo not shown) [cucurbit[6]uril]
- viral titre reduction [2]: lack of viral titre reduction
- DNA detected following viral exposure, DNAse and PCR amplification [3]: DNA was detected
- antiviral effect [4]: ineffective

Compound: O=C1N2CN3C(=O)N4CN5C(=O)N6CN7C(=O)N8CN9C(=O)N%10CN%11C(=O)N%12CN%13C(=O)N%14CN%15C(=O)N%16CN1C1C2N2CN%17C(=O)N(CN%18C(=O)N(CN%19C(=O)N(CN%20C(=O)N(CN%21C(=O)N(CN%22C(=O)N(CN%23C(=O)N(CN1C2=O)C%16C%15%23)C%14C%13%22)C%12C%11%21)C%10C9%20)C8C7%19)C6C5%18)C4C3%17 (stereo not shown) [cucurbit[8]uril, Cucurbit[8]uril]
- viral titre reduction [2]: lack of viral titre reduction
- DNA detected following viral exposure, DNAse and PCR amplification [3]: No DNA was detected
- antiviral effect [4]: ineffective

Compound: cucurbit[7]uril
- reduction in viral titre ([2]; 20-50 mg/mL): approximately 5 log
- EC50 [5]: 1270 µg/mL
- viral inhibition ([6]; added after the virus has been exposed to the cells (post-infection)): no viral inhibition
- antiviral effect ([6]; added directly to the virus before infection ('during infection')): an antiviral effect was observed
- viral inhibition ([6]; removed prior to viral introduction (pre-treatment)): no viral inhibition
- EC50 [7]: 1070 µg/mL
- antiviral efficacy [8]: largely ineffective
- antiviral efficacy ([8]; 50 mg/mL): highly effective
- mode of action (virucidal or virustatic) [9]: virucidal
